# According to patent US20070259959A1, “Ppar Agonists for the Treatment of Hcv Infection” (priority 2003, published 2007):
# System: HCV
# Assay: Inhibition of HCV infection of cultured human hepatocytes (quantitative RT-PCR of HCV RNA)
# Format: cell-based
# Conditions: cultured human hepatocytes infected with infectious human serum; fenofibric acid tested at 50 μM and 500 μM; HCV RNA copies/350,000 cells four days after infection; 0.5% DMSO
# Procedure: Isolated human hepatocytes from surgical liver resection were seeded in 24 well microplates at the density of 3×10^5 cells/well. Cells were allowed to attach and recover 24 hours and then medium was replaced with a fresh one containing different concentrations of fenofibric acid (50 μM and 500 μM). Hepatocytes were incubated 24 hours with the indicated amounts of fenofibric acid, then medium was replaced with fresh one containing the same amounts of fenofibric acid and a fixed amount (100 μl) of an infectious human serum from a patient chronically infected with HCV. Cells were incubated 18 hours with the virus to allow infection, then washed and incubated for four days. Total RNA was extracted and viral replication was measured by quantitative RT-PCR.
# Typically, 10^4 to 10^5 copies of genomes per well are detected after four days from infection. To be sure that the measured viral RNA derived from active replication, a small molecule inhibitor of the viral replicase was included as a positive control.
# Viral replication was measured on total RNA by quantitative PCR and expressed as number of HCV copies/350,000 cells. The experiment was performed in triplicate wells and values are shown with standard deviations. Fenofibric acid was dissolved in DMSO and tested at 50 μM and 500 μM. […]
compound,measurement,value
CC(C)(Oc1ccc(C(=O)c2ccc(Cl)cc2)cc1)C(=O)O [fenofibric acid],reduction of HCV infectivity,up to 90%
